Test results: patent US12336981B2, “Compounds and compositions for the inhibition of NAMPT” (Valo Health, Inc., priority 2010, dated 2025)
pIC50: −log10 of the molar value. Where two headings read alike, the source gives them in different places.

Assays:
[1] = system: A2780 cells; assay: In-vitro cell proliferation assay (SRB), A2780 cells; type: cell-based; settings: Homo sapiens, A2780, 72 h, A2780 cells, 72 hours, read-out: A2780 IC50
Procedure, shortened: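 Read-out is SRB absorbance at 570 nm on TCA-fixed cells after 72 hours of compound treatment at 37° C. in 5% CO2. Background from a media-only plate is subtracted, and % inhibition is interpolated between two tested concentrations.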

[2] = biological target: T1, NAMPT (Homo sapiens, UniProt P43490); assay: Biochemical inhibition assay: NAMPT enzymatic reaction, NMN quantified by mass spectrometry; settings: NAMPT enzymatic reaction; read-out: Biochem IC50
T1 construct: His tag; host or cells: E. coli
Procedure, shortened: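 Inhibition of E. coli-expressed His-tagged human NAMPT, measured as NMN formation by mass spectrometry after a 30 min room-temperature reaction containing 1 μM NAM, 100 μM PRPP and 2.5 mM ATP.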

T1 sequence (P43490 whole entry): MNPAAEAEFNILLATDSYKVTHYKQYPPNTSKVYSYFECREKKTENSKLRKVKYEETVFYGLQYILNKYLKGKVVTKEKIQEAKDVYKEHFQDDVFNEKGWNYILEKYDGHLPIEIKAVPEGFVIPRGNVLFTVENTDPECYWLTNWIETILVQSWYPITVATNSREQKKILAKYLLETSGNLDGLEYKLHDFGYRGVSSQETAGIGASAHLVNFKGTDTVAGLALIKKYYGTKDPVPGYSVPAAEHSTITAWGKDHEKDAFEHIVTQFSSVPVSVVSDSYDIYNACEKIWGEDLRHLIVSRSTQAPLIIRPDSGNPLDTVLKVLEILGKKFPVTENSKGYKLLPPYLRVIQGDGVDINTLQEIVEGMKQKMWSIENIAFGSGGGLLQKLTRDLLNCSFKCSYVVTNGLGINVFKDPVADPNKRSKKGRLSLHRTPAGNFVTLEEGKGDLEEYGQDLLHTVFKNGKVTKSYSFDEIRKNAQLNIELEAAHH

Row | SMILES | pIC50 ([1]; SRB) | pIC50 [2] | pIC50 ([1]; SRB assay)
1 | COc1cccc(Cl)c1S(=O)(=O)c1ccc(CNC(=O)c2ccc3nccn3c2)cc1 [N-({4-[(2-chloro-6-methoxybenzene)sulfonyl]phenyl}methyl)imidazo[1,2-a]pyridine-6-carboxamide] | 7.59 | 7.69 | –
2 | O=C(NCc1ccc(S(=O)(=O)c2ccccc2Cl)cc1)c1cnc2[nH]ncc2c1 [N-({4-[(2-chlorobenzene)sulfonyl]phenyl}methyl)-1H-pyrazolo[3,4-b]pyridine-5-carboxamide] | 6.00 to 7.00 | 7.03 | –
3 | O=C(NCc1ccc(S(=O)(=O)c2ccccc2Cl)cc1)c1cc2cnccc2[nH]1 [N-({4-[(2-chlorobenzene)sulfonyl]phenyl}methyl)-1H-pyrrolo[3,2-c]pyridine-2-carboxamide] | – | 8.22 | 6.93
4 | O=C(NCc1ccc(S(=O)(=O)c2ccccc2Cl)cc1)c1ccc2nccn2c1 [N-({4-[(2-chlorobenzene)sulfonyl]phenyl}methyl)imidazo[1,2-a]pyridine-6-carboxamide] | 7.25 | 7.62 | –
5 | N#Cc1ccccc1S(=O)(=O)c1ccc(CNC(=O)c2cnc3[nH]ncc3c2)cc1 [N-({4-[(2-cyanobenzene)sulfonyl]phenyl}methyl)-1H-pyrazolo[3,4-b]pyridine-5-carboxamide] | 6.00 to 7.00 | 6.88 | –
6 | N#Cc1ccccc1S(=O)(=O)c1ccc(CNC(=O)c2cc3cnccc3[nH]2)cc1 [N-({4-[(2-cyanobenzene)sulfonyl]phenyl}methyl)-1H-pyrrolo[3,2-c]pyridine-2-carboxamide] | 7.20 | 7.60 | –
7 | N#Cc1ccccc1S(=O)(=O)c1ccc(CNC(=O)c2cc3ccncc3o2)cc1 [N-({4-[(2-cyanobenzene)sulfonyl]phenyl}methyl)furo[2,3-c]pyridine-2-carboxamide] | 7.20 | 7.61 | –
8 | N#Cc1ccccc1S(=O)(=O)c1ccc(CNC(=O)c2cc3ccncc3s2)cc1 [N-({4-[(2-cyanobenzene)sulfonyl]phenyl}methyl)thieno[2,3-c]pyridine-2-carboxamide] | 7.17 | 7.84 | –
9 | CCOc1cc(F)ccc1S(=O)(=O)c1ccc(CNC(=O)c2cc3cnccc3[nH]2)cc1 [N-({4-[(2-ethoxy-4-fluorobenzene)sulfonyl]phenyl}methyl)-1H-pyrrolo[3,2-c]pyridine-2-carboxamide] | 8.74 | 8.47 | –
10 | CCOc1cccc(F)c1S(=O)(=O)c1ccc(CNC(=O)c2cc3ccncc3o2)cc1 [N-({4-[(2-ethoxy-6-fluorobenzene)sulfonyl]phenyl}methyl)furo[2,3-c]pyridine-2-carboxamide] | 7.55 | 7.77 | –
11 | CCOc1ccccc1S(=O)(=O)c1ccc(CNC(=O)c2cc3cnccc3[nH]2)cc1 [N-({4-[(2-ethoxybenzene)sulfonyl]phenyl}methyl)-1H-pyrrolo[3,2-c]pyridine-2-carboxamide] | – | 7.96 | 8.70
12 | CCOc1ccccc1S(=O)(=O)c1ccc(CNC(=O)c2cc3ccncc3o2)cc1 [N-({4-[(2-ethoxybenzene)sulfonyl]phenyl}methyl)furo[2,3-c]pyridine-2-carboxamide] | 8.22 | 7.18 | –
13 | CCOc1ccccc1S(=O)(=O)c1ccc(CNC(=O)c2ccc3nccn3c2)cc1 [N-({4-[(2-ethoxybenzene)sulfonyl]phenyl}methyl)imidazo[1,2-a]pyridine-6-carboxamide] | 8.47 | 7.69 | –
14 | CCOc1ccccc1S(=O)(=O)c1ccc(CNC(=O)c2cc3ccncc3s2)cc1 [N-({4-[(2-ethoxybenzene)sulfonyl]phenyl}methyl)thieno[2,3-c]pyridine-2-carboxamide] | – | 8.70 | 9.10
15 | CCc1ccccc1S(=O)(=O)c1ccc(CNC(=O)c2cnc3[nH]ncc3c2)cc1 [N-({4-[(2-ethylbenzene)sulfonyl]phenyl}methyl)-1H-pyrazolo[3,4-b]pyridine-5-carboxamide] | 7.89 | 8.08 | –
16 | CCc1ccccc1S(=O)(=O)c1ccc(CNC(=O)c2cc3cnccc3[nH]2)cc1 [N-({4-[(2-ethylbenzene)sulfonyl]phenyl}methyl)-1H-pyrrolo[3,2-c]pyridine-2-carboxamide] | – | 8.30 | 8.52
17 | CCc1ccccc1S(=O)(=O)c1ccc(CNC(=O)c2cc3ccncc3o2)cc1 [N-({4-[(2-ethylbenzene)sulfonyl]phenyl}methyl)furo[2,3-c]pyridine-2-carboxamide] | 7.89 | 8.27 | –
18 | CCc1ccccc1S(=O)(=O)c1ccc(CNC(=O)c2ccc3nccn3c2)cc1 [N-({4-[(2-ethylbenzene)sulfonyl]phenyl}methyl)imidazo[1,2-a]pyridine-6-carboxamide] | 7.89 | 7.52 | –

Row | SMILES | pIC50 ([1]; SRB) | pIC50 [2] | pIC50 ([1]; SRB assay)
19 | CCc1ccccc1S(=O)(=O)c1ccc(CNC(=O)c2cc3ccncc3s2)cc1 [N-({4-[(2-ethylbenzene)sulfonyl]phenyl}methyl)thieno[2,3-c]pyridine-2-carboxamide] | – | 8.30 | 8.54
20 | COc1cccc(S(=O)(=O)c2ccc(CNC(=O)c3cc4cnccc4[nH]3)cc2)c1F [N-({4-[(2-fluoro-3-methoxybenzene)sulfonyl]phenyl}methyl)-1H-pyrrolo[3,2-c]pyridine-2-carboxamide] | – | 8.00 | 8.15
21 | COc1cccc(S(=O)(=O)c2ccc(CNC(=O)c3ccc4nccn4c3)cc2)c1F [N-({4-[(2-fluoro-3-methoxybenzene)sulfonyl]phenyl}methyl)imidazo[1,2-a]pyridine-6-carboxamide] | 7.87 | 7.48 | –
22 | Cc1cccc(S(=O)(=O)c2ccc(CNC(=O)c3cc4ccncc4o3)cc2)c1F [N-({4-[(2-fluoro-3-methylbenzene)sulfonyl]phenyl}methyl)furo[2,3-c]pyridine-2-carboxamide] | 8.10 | 8.20 | –
23 | COc1ccc(S(=O)(=O)c2ccc(CNC(=O)c3ccc4nccn4c3)cc2)c(F)c1 [N-({4-[(2-fluoro-4-methoxybenzene)sulfonyl]phenyl}methyl)imidazo[1,2-a]pyridine-6-carboxamide] | 7.64 | 7.38 | –
24 | Cc1ccc(S(=O)(=O)c2ccc(CNC(=O)c3cc4cnccc4[nH]3)cc2)c(F)c1 [N-({4-[(2-fluoro-4-methylbenzene)sulfonyl]phenyl}methyl)-1H-pyrrolo[3,2-c]pyridine-2-carboxamide] | – | 7.96 | 7.68
25 | Cc1ccc(S(=O)(=O)c2ccc(CNC(=O)c3ccc4nccn4c3)cc2)c(F)c1 [N-({4-[(2-fluoro-4-methylbenzene)sulfonyl]phenyl}methyl)imidazo[1,2-a]pyridine-6-carboxamide] | 7.61 | 7.67 | –
26 | Cc1ccc(S(=O)(=O)c2ccc(CNC(=O)c3cc4ccncc4s3)cc2)c(F)c1 [N-({4-[(2-fluoro-4-methylbenzene)sulfonyl]phenyl}methyl)thieno[2,3-c]pyridine-2-carboxamide] | – | 8.10 | 7.68
27 | COc1ccc(F)c(S(=O)(=O)c2ccc(CNC(=O)c3cnc4[nH]ncc4c3)cc2)c1 [N-({4-[(2-fluoro-5-methoxybenzene)sulfonyl]phenyl}methyl)-1H-pyrazolo[3,4-b]pyridine-5-carboxamide] | 6.00 to 7.00 | 6.86 | –
28 | Cc1ccc(F)c(S(=O)(=O)c2ccc(CNC(=O)c3cc4cnccc4[nH]3)cc2)c1 [N-({4-[(2-fluoro-5-methylbenzene)sulfonyl]phenyl}methyl)-1H-pyrrolo[3,2-c]pyridine-2-carboxamide] | – | 7.60 | 7.62
29 | COc1cccc(F)c1S(=O)(=O)c1ccc(CNC(=O)c2ccc3nccn3c2)cc1 [N-({4-[(2-fluoro-6-methoxybenzene)sulfonyl]phenyl}methyl)imidazo[1,2-a]pyridine-6-carboxamide] | 7.58 | 7.32 | –
30 | O=C(NCc1ccc(S(=O)(=O)c2ccccc2F)cc1)c1cc2ccncc2o1 [N-({4-[(2-fluorobenzene)sulfonyl]phenyl}methyl)furo[2,3-c]pyridine-2-carboxamide] | 6.00 to 7.00 | 7.38 | –
31 | CS(=O)(=O)Nc1ccccc1S(=O)(=O)c1ccc(CNC(=O)c2cc3cnccc3[nH]2)cc1 [N-({4-[(2-methanesulfonamidobenzene)sulfonyl]phenyl}methyl)-1H-pyrrolo[3,2-c]pyridine-2-carboxamide] | – | 6.55 | < 6.00
32 | COc1ccc(C)cc1S(=O)(=O)c1ccc(CNC(=O)c2cnc3[nH]ncc3c2)cc1 [N-({4-[(2-methoxy-5-methylbenzene)sulfonyl]phenyl}methyl)-1H-pyrazolo[3,4-b]pyridine-5-carboxamide] | 7.61 | 7.25 | –
33 | COc1ccc(C)cc1S(=O)(=O)c1ccc(CNC(=O)c2cc3cnccc3[nH]2)cc1 [N-({4-[(2-methoxy-5-methylbenzene)sulfonyl]phenyl}methyl)-1H-pyrrolo[3,2-c]pyridine-2-carboxamide] | – | 7.92 | 8.52
34 | COc1ccc(C)cc1S(=O)(=O)c1ccc(CNC(=O)c2ccc3nccn3c2)cc1 [N-({4-[(2-methoxy-5-methylbenzene)sulfonyl]phenyl}methyl)imidazo[1,2-a]pyridine-6-carboxamide] | 7.93 | 7.37 | –
35 | COc1ccc(C)cc1S(=O)(=O)c1ccc(CNC(=O)c2cc3ccncc3s2)cc1 [N-({4-[(2-methoxy-5-methylbenzene)sulfonyl]phenyl}methyl)thieno[2,3-c]pyridine-2-carboxamide] | – | 8.22 | 8.60
36 | COc1cccc(C)c1NS(=O)(=O)c1ccc(CNC(=O)c2cc3cnccc3[nH]2)cc1 [N-({4-[(2-methoxy-6-methylphenyl)sulfamoyl]phenyl}methyl)-1H-pyrrolo[3,2-c]pyridine-2-carboxamide] | – | 8.22 | 4.91
